PubChem BioAssay (NCI)
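Interpolation was linear, between the two tested concentrations surrounding the appropriate level; five concentrations were tested over 48 hours in 96-well plates. Definition used: TGI = concentration required for complete inhibition of growth.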

What was measured:
Test in all cases: inhibition of tumour cell growth, NCI panel, 48 h
M14 melanoma = test system: M14 melanoma
DU-145 prostate = test system: DU-145 prostate
SR leukemia = test system: SR leukemia
SF-539 CNS = test system: SF-539 CNS
T-47D breast = test system: T-47D breast
PC-3 prostate = test system: PC-3 prostate
MALME-3M melanoma = test system: MALME-3M melanoma
OVCAR-3 ovarian = test system: OVCAR-3 ovarian
EKVX NSCLC = test system: EKVX NSCLC
KM12 colon = test system: KM12 colon
A549 NSCLC = test system: A549 NSCLC
SK-MEL-5 melanoma = test system: SK-MEL-5 melanoma
CAKI-1 renal = test system: CAKI-1 renal
786-0 renal = test system: 786-0 renal
HS 578T breast = test system: HS 578T breast
HCC-2998 colon = test system: HCC-2998 colon
IGROV1 ovarian = test system: IGROV1 ovarian
NCI-H226 lung = test system: NCI-H226 lung
U251 CNS = test system: U251 CNS
UO-31 renal = test system: UO-31 renal
SF-268 CNS = test system: SF-268 CNS
SN12C renal = test system: SN12C renal
OVCAR-5 ovarian = test system: OVCAR-5 ovarian
OVCAR-4 ovarian = test system: OVCAR-4 ovarian
OVCAR-8 ovarian = test system: OVCAR-8 ovarian
MOLT-4 leukemia = test system: MOLT-4 leukemia
HOP-62 NSCLC = test system: HOP-62 NSCLC
SNB-19 CNS = test system: SNB-19 CNS
K-562 leukemia = test system: K-562 leukemia
UACC-62 melanoma = test system: UACC-62 melanoma
MCF7 breast = test system: MCF7 breast
MDA-MB-435 = test system: MDA-MB-435
RXF 393 renal = test system: RXF 393 renal
NCI-H460 lung = test system: NCI-H460 lung
RPMI-8226 leukemia = test system: RPMI-8226 leukemia
NCI-H23 lung = test system: NCI-H23 lung
NCI-H522 lung = test system: NCI-H522 lung
SK-MEL-28 melanoma = test system: SK-MEL-28 melanoma
HCT-15 colon = test system: HCT-15 colon
HT29 colon = test system: HT29 colon
TK-10 renal = test system: TK-10 renal
HL-60(TB) leukemia = test system: HL-60(TB) leukemia
MDA-MB-231 breast = test system: MDA-MB-231 breast
CCRF-CEM leukemia = test system: CCRF-CEM leukemia
SW-620 colon = test system: SW-620 colon
HOP-92 NSCLC = test system: HOP-92 NSCLC
SF-295 CNS = test system: SF-295 CNS
UACC-257 melanoma = test system: UACC-257 melanoma
ACHN renal = test system: ACHN renal
COLO 205 colon = test system: COLO 205 colon
BT-549 breast = test system: BT-549 breast
A498 renal = test system: A498 renal
SK-OV-3 ovarian = test system: SK-OV-3 ovarian
LOX IMVI melanoma = test system: LOX IMVI melanoma
NCI/ADR-RES ovarian = test system: NCI/ADR-RES ovarian
SNB-75 CNS = test system: SNB-75 CNS
MDA-N = test system: MDA-N
HCT-116 colon = test system: HCT-116 colon

## Nc1cc(Cl)cc2cc(Cl)cnc12
M14 melanoma
  TGI: > 100 µM
DU-145 prostate
  TGI: > 100 µM
SR leukemia
  TGI: > 100 µM
SF-539 CNS
  TGI: > 100 µM
T-47D breast
  TGI: > 100 µM
PC-3 prostate
  TGI: > 100 µM
MALME-3M melanoma
  TGI: > 100 µM
OVCAR-3 ovarian
  TGI: > 100 µM
EKVX NSCLC
  TGI: > 100 µM
KM12 colon
  TGI: > 100 µM
A549 NSCLC
  TGI: > 100 µM
SK-MEL-5 melanoma
  TGI: > 100 µM
CAKI-1 renal
  TGI: > 100 µM
786-0 renal
  TGI: > 100 µM
HS 578T breast
  TGI: > 100 µM
HCC-2998 colon
  TGI: > 100 µM
IGROV1 ovarian
  TGI: > 100 µM
NCI-H226 lung
  TGI: > 100 µM
U251 CNS
  TGI: > 100 µM
UO-31 renal
  TGI: > 100 µM
SF-268 CNS
  TGI: > 100 µM
SN12C renal
  TGI: > 100 µM
OVCAR-5 ovarian
  TGI: > 100 µM
OVCAR-4 ovarian
  TGI: > 100 µM
OVCAR-8 ovarian
  TGI: > 100 µM
MOLT-4 leukemia
  TGI: > 100 µM
HOP-62 NSCLC
  TGI: > 100 µM
SNB-19 CNS
  TGI: > 100 µM
K-562 leukemia
  TGI: > 100 µM
UACC-62 melanoma
  TGI: > 100 µM
MCF7 breast
  TGI: > 100 µM
MDA-MB-435
  TGI: > 100 µM
RXF 393 renal
  TGI: > 100 µM
NCI-H460 lung
  TGI: > 100 µM
RPMI-8226 leukemia
  TGI: > 100 µM
NCI-H23 lung
  TGI: > 100 µM
NCI-H522 lung
  TGI: > 100 µM
SK-MEL-28 melanoma
  TGI: > 100 µM
HCT-15 colon
  TGI: > 100 µM
HT29 colon
  TGI: > 100 µM
TK-10 renal
  TGI: > 100 µM
HL-60(TB) leukemia
  TGI: > 100 µM
MDA-MB-231 breast
  TGI: > 100 µM
CCRF-CEM leukemia
  TGI: > 100 µM
SW-620 colon
  TGI: > 100 µM
HOP-92 NSCLC
  TGI: 99.3 µM
SF-295 CNS
  TGI: > 100 µM
UACC-257 melanoma
  TGI: > 100 µM
ACHN renal
  TGI: > 100 µM
COLO 205 colon
  TGI: > 100 µM
BT-549 breast
  TGI: > 100 µM
A498 renal
  TGI: > 100 µM
SK-OV-3 ovarian
  TGI: > 100 µM
LOX IMVI melanoma
  TGI: > 100 µM
NCI/ADR-RES ovarian
  TGI: > 100 µM
SNB-75 CNS
  TGI: > 100 µM
MDA-N
  TGI: > 100 µM
HCT-116 colon
  TGI: > 100 µM

## Cc1nc2ccccc2c(=O)n1NC(=O)c1ccccn1
M14 melanoma
  TGI: > 100 µM
DU-145 prostate
  TGI: > 100 µM
SR leukemia
  TGI: > 100 µM
SF-539 CNS
  TGI: > 100 µM
T-47D breast
  TGI: > 100 µM
PC-3 prostate
  TGI: > 100 µM
MALME-3M melanoma
  TGI: > 100 µM
OVCAR-3 ovarian
  TGI: > 100 µM
EKVX NSCLC
  TGI: > 100 µM
KM12 colon
  TGI: > 100 µM
A549 NSCLC
  TGI: > 100 µM
SK-MEL-5 melanoma
  TGI: > 100 µM
786-0 renal
  TGI: > 100 µM
HS 578T breast
  TGI: > 100 µM
HCC-2998 colon
  TGI: > 100 µM
IGROV1 ovarian
  TGI: > 100 µM
U251 CNS
  TGI: > 100 µM
UO-31 renal
  TGI: > 100 µM
SF-268 CNS
  TGI: > 100 µM
SN12C renal
  TGI: > 100 µM
OVCAR-4 ovarian
  TGI: > 100 µM
OVCAR-8 ovarian
  TGI: > 100 µM
MOLT-4 leukemia
  TGI: > 100 µM
HOP-62 NSCLC
  TGI: > 100 µM
SNB-19 CNS
  TGI: > 100 µM
K-562 leukemia
  TGI: > 100 µM
UACC-62 melanoma
  TGI: > 100 µM
MDA-MB-435
  TGI: > 100 µM
RXF 393 renal
  TGI: > 100 µM
NCI-H460 lung
  TGI: > 100 µM
RPMI-8226 leukemia
  TGI: > 100 µM
NCI-H23 lung
  TGI: > 100 µM
NCI-H522 lung
  TGI: > 100 µM
SK-MEL-28 melanoma
  TGI: > 100 µM
HT29 colon
  TGI: > 100 µM
TK-10 renal
  TGI: > 100 µM
HL-60(TB) leukemia
  TGI: > 100 µM
MDA-MB-231 breast
  TGI: > 100 µM
CCRF-CEM leukemia
  TGI: > 100 µM
SW-620 colon
  TGI: > 100 µM
HOP-92 NSCLC
  TGI: > 100 µM
SF-295 CNS
  TGI: > 100 µM
UACC-257 melanoma
  TGI: > 100 µM
ACHN renal
  TGI: > 100 µM
COLO 205 colon
  TGI: > 100 µM
BT-549 breast
  TGI: > 100 µM
A498 renal
  TGI: > 100 µM
SK-OV-3 ovarian
  TGI: > 100 µM
LOX IMVI melanoma
  TGI: > 100 µM
NCI/ADR-RES ovarian
  TGI: > 100 µM
SNB-75 CNS
  TGI: > 100 µM
MDA-N
  TGI: > 100 µM
HCT-116 colon
  TGI: > 100 µM
